# Source: the supplement of paper PMC10307832
# Legend:
# Experiment in all cases: relative viability (nuclei count vs DMSO), 5 days (fraction); higher = more cells survive
# [1] = test system: PC-3 [JPC-3]
# Summary of the method: (§1)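 Each reported value is a median over duplicate plates. It expresses relative viability: treated-well nuclei count divided by vehicle-well nuclei count. Lung cancer cell lines in 1536-well plates were dosed by pin tool a day after seeding, alone with one drug or with a fixed anchor-drug dose plus five library-drug doses (not always all listed) in √10 steps, and nuclei were counted after 5 days.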
# [2] = test system: A-427
# Summary of the method: as §1
# [3] = test system: NCI-H1792
# Summary of the method: as §1
# [4] = test system: NCI-H522
# Summary of the method: as §1
# [5] = test system: LC-2-ad
# Summary of the method: as §1
# [6] = test system: HOP-62
# Summary of the method: as §1
# [7] = test system: NCI-H1734
# Summary of the method: as §1
# [8] = test system: HCC-78
# Summary of the method: as §1
# [9] = test system: RERF-LC-KJ
# Summary of the method: as §1
# [10] = test system: NCI-H2126
# Summary of the method: as §1
# [11] = test system: NCI-H358
# Summary of the method: as §1
# [12] = test system: HCC-15
# Summary of the method: as §1
# [13] = test system: NCI-H1975
# Summary of the method: as §1
# [14] = test system: NCI-H1915
# Summary of the method: as §1
# [15] = test system: NCI-H2347
# Summary of the method: as §1
# [16] = test system: NCI-H1755
# Summary of the method: as §1
# [17] = test system: LXF-289
# Summary of the method: as §1
# [18] = test system: NCI-H647
# Summary of the method: as §1
# [19] = test system: NCI-H2342
# Summary of the method: as §1
compound,measurement,setting,value
Nc1ccn([C@@H]2O[C@H](CO)[C@@H](O)[C@@H]2O)c(=O)n1 [Cytarabine] + NC(=O)Nc1cc(-c2cccc(F)c2)sc1C(=O)N[C@H]1CCCNC1 [AZD7762] (partner 0.2 µM),relative viability,[1]; first compound 0.005 µM,0.746
same,relative viability,[1]; first compound 0.01581 µM,0.809
same,relative viability,[1]; first compound 0.05 µM,0.676
same,relative viability,[1]; first compound 0.1581 µM,0.395
same,relative viability,[1]; first compound 0.5 µM,0.425
same,relative viability,[2]; first compound 0.005 µM,0.343
same,relative viability,[2]; first compound 0.01581 µM,0.246
same,relative viability,[2]; first compound 0.05 µM,0.218
same,relative viability,[2]; first compound 0.1581 µM,0.184
same,relative viability,[2]; first compound 0.5 µM,0.184
same,relative viability,[3]; first compound 0.01581 µM,0.39
same,relative viability,[3]; first compound 0.05 µM,0.275
same,relative viability,[3]; first compound 0.1581 µM,0.0675
same,relative viability,[3]; first compound 0.5 µM,0.0488
same,relative viability,[4]; first compound 0.005 µM,0.827
same,relative viability,[4]; first compound 0.01581 µM,0.605
same,relative viability,[4]; first compound 0.05 µM,0.72
same,relative viability,[4]; first compound 0.1581 µM,0.426
same,relative viability,[4]; first compound 0.5 µM,0.34
same,relative viability,[5]; first compound 0.005 µM,0.811
same,relative viability,[5]; first compound 0.01581 µM,0.681
same,relative viability,[5]; first compound 0.05 µM,0.674
same,relative viability,[5]; first compound 0.1581 µM,0.245
same,relative viability,[5]; first compound 0.5 µM,0.208
same,relative viability,[6]; first compound 0.005 µM,0.391
same,relative viability,[6]; first compound 0.01581 µM,0.157
same,relative viability,[6]; first compound 0.05 µM,0.203
same,relative viability,[6]; first compound 0.1581 µM,0.107
same,relative viability,[6]; first compound 0.5 µM,0.0888
same,relative viability,[7]; first compound 0.005 µM,0.258
same,relative viability,[7]; first compound 0.01581 µM,0.172
same,relative viability,[7]; first compound 0.05 µM,0.159
same,relative viability,[7]; first compound 0.1581 µM,0.0997
same,relative viability,[7]; first compound 0.5 µM,0.102
same,relative viability,[8]; first compound 0.005 µM,0.614
same,relative viability,[8]; first compound 0.01581 µM,0.779
same,relative viability,[8]; first compound 0.05 µM,0.486
same,relative viability,[8]; first compound 0.1581 µM,0.374
same,relative viability,[8]; first compound 0.5 µM,0.314
same,relative viability,[9]; first compound 0.005 µM,0.957
same,relative viability,[9]; first compound 0.01581 µM,0.941
same,relative viability,[9]; first compound 0.05 µM,0.51
same,relative viability,[9]; first compound 0.1581 µM,0.381
same,relative viability,[9]; first compound 0.5 µM,0.322
same,relative viability,[10]; first compound 0.005 µM,0.965
same,relative viability,[10]; first compound 0.01581 µM,0.936
same,relative viability,[10]; first compound 0.05 µM,0.808
same,relative viability,[10]; first compound 0.1581 µM,0.361
same,relative viability,[10]; first compound 0.5 µM,0.267
same,relative viability,[11]; first compound 0.005 µM,0.419
same,relative viability,[11]; first compound 0.01581 µM,0.229
same,relative viability,[11]; first compound 0.05 µM,0.208
same,relative viability,[11]; first compound 0.1581 µM,0.221
same,relative viability,[11]; first compound 0.5 µM,0.182
same,relative viability,[12]; first compound 0.005 µM,1.11
same,relative viability,[12]; first compound 0.01581 µM,1.52
same,relative viability,[12]; first compound 0.05 µM,1.45
same,relative viability,[12]; first compound 0.1581 µM,1.06
same,relative viability,[12]; first compound 0.5 µM,0.913
same,relative viability,[13]; first compound 0.005 µM,0.679
same,relative viability,[13]; first compound 0.01581 µM,0.581
same,relative viability,[13]; first compound 0.05 µM,0.388
same,relative viability,[13]; first compound 0.1581 µM,0.321
same,relative viability,[13]; first compound 0.5 µM,0.234
same,relative viability,[14]; first compound 0.005 µM,0.579
same,relative viability,[14]; first compound 0.01581 µM,0.386
same,relative viability,[14]; first compound 0.05 µM,0.241
same,relative viability,[14]; first compound 0.1581 µM,0.155
same,relative viability,[14]; first compound 0.5 µM,0.131
same,relative viability,[15]; first compound 0.005 µM,0.721
same,relative viability,[15]; first compound 0.01581 µM,0.525
same,relative viability,[15]; first compound 0.05 µM,0.47
same,relative viability,[15]; first compound 0.1581 µM,0.369
same,relative viability,[15]; first compound 0.5 µM,0.286
same,relative viability,[16]; first compound 0.005 µM,0.501
same,relative viability,[16]; first compound 0.01581 µM,0.314
same,relative viability,[16]; first compound 0.05 µM,0.334
same,relative viability,[16]; first compound 0.1581 µM,0.372
same,relative viability,[16]; first compound 0.5 µM,0.298
same,relative viability,[17]; first compound 0.005 µM,0.927
same,relative viability,[17]; first compound 0.01581 µM,0.85
same,relative viability,[17]; first compound 0.05 µM,0.442
same,relative viability,[17]; first compound 0.1581 µM,0.123
same,relative viability,[17]; first compound 0.5 µM,0.0877
same,relative viability,[18]; first compound 0.005 µM,0.188
same,relative viability,[18]; first compound 0.01581 µM,0.0767
same,relative viability,[18]; first compound 0.05 µM,0.0765
same,relative viability,[18]; first compound 0.1581 µM,0.0321
same,relative viability,[18]; first compound 0.5 µM,0.0304
same,relative viability,[19]; first compound 0.005 µM,0.472
same,relative viability,[19]; first compound 0.01581 µM,0.385
same,relative viability,[19]; first compound 0.05 µM,0.397
same,relative viability,[19]; first compound 0.1581 µM,0.377
same,relative viability,[19]; first compound 0.5 µM,0.301
